For orientation: viscosity means the internal friction of a fluid under shear. Usually speed of sound stands for how fast a sound wave travels through the sample. One may read the mass density as mass per unit of volume.

Data set [1] in a line: molar heat capacity at constant pressure; xn = mol fraction of the nth substance listed. As to conditions: 101 kPa, Liquid, DSC, x2 = 0.
Data set [2] is described as follows: xn = mol fraction of the nth substance listed. As to conditions: 101 kPa, Liquid, x2 = 0; for viscosity: Falling or rolling sphere viscometry; for speed of sound: Sing-around technique in a fixed-path interferometer; for mass density: Vibrating tube method.

Numbers after ± are expanded uncertainties.

Regarding `CCCCCCCCCC` [decane] + CC12CCC(CC1)C(C)(C)O2, the “molar heat capacity at constant pressure” value in data set [1] (278.15 K) worked out at 305.94 ± 12 J/K/mol; in data set [1] (298.15 K), 314.4 ± 12 J/K/mol; in data set [1] (318.15 K), 323.94 ± 13 J/K/mol; in data set [1] (338.15 K) it was 334.32 ± 13 J/K/mol. Besides, the viscosity in data set [2] (278.15 K) was 1.19 ± 0.04 mPa·s; in data set [2] (298.15 K), 0.86 ± 0.04 mPa·s; in data set [2] (318.15 K), 0.66 ± 0.04 mPa·s; in data set [2] (338.15 K), 0.54 ± 0.04 mPa·s. Further, the speed of sound came to 1315 ± 1.5 m/s in data set [2] (278.15 K), 1234.7 ± 1.5 m/s in data set [2] (298.15 K), 1156.6 ± 1.5 m/s in data set [2] (318.15 K) and 1080.5 ± 1.5 m/s in data set [2] (338.15 K). In addition, the mass density in data set [2] (278.15 K) is listed as 741.18 ± 0.24 kg/m3; in data set [2] (298.15 K), 726.11 ± 0.24 kg/m3; in data set [2] (318.15 K), 710.89 ± 0.24 kg/m3; in data set [2] (338.15 K), 695.42 ± 0.25 kg/m3.

Regarding `CCCCCC` [hexane] + CC12CCC(CC1)C(C)(C)O2, the “molar heat capacity at constant pressure” value was 188.32 ± 7.3 J/K/mol in data set [1] (278.15 K), 194.96 ± 7.5 J/K/mol in data set [1] (298.15 K), 201.96 ± 7.8 J/K/mol in data set [1] (318.15 K) and 208.99 ± 8.1 J/K/mol in data set [1] (338.15 K). In addition, the viscosity in data set [2] (278.15 K) was 0.39 ± 0.04 mPa·s; in data set [2] (298.15 K) it was 0.34 ± 0.04 mPa·s; in data set [2] (318.15 K), 0.3 ± 0.04 mPa·s; in data set [2] (338.15 K), 0.26 ± 0.04 mPa·s. Further, the speed of sound is recorded as 1169 ± 1.5 m/s in data set [2] (278.15 K), 1078.2 ± 1.5 m/s in data set [2] (298.15 K), 988.59 ± 1.5 m/s in data set [2] (318.15 K) and 901.09 ± 1.5 m/s in data set [2] (338.15 K). Besides, the mass density is 673.1 ± 0.25 kg/m3 in data set [2] (278.15 K), 655.3 ± 0.25 kg/m3 in data set [2] (298.15 K), 636.71 ± 0.25 kg/m3 in data set [2] (318.15 K) and 617.44 ± 0.26 kg/m3 in data set [2] (338.15 K).

For `CCCCCCCC` [octane] + CC12CCC(CC1)C(C)(C)O2, the “molar heat capacity at constant pressure” value came out at 246.17 ± 9.5 J/K/mol in data set [1] (278.15 K), 253.89 ± 9.8 J/K/mol in data set [1] (298.15 K), 262.16 ± 10 J/K/mol in data set [1] (318.15 K) and 270.96 ± 10 J/K/mol in data set [1] (338.15 K). The viscosity in data set [2] (278.15 K) is recorded as 0.68 ± 0.04 mPa·s; in data set [2] (298.15 K) it was 0.53 ± 0.04 mPa·s; in data set [2] (318.15 K) it was 0.43 ± 0.04 mPa·s; in data set [2] (338.15 K), 0.37 ± 0.04 mPa·s. Besides, the speed of sound in data set [2] (278.15 K) is given as 1256.7 ± 1.3 m/s; in data set [2] (298.15 K), 1172.7 ± 1.2 m/s; in data set [2] (318.15 K), 1090.7 ± 1.2 m/s; in data set [2] (338.15 K), 1010.7 ± 1.2 m/s. Also, the mass density turned out to be 714.55 ± 0.17 kg/m3 in data set [2] (278.15 K), 698.51 ± 0.17 kg/m3 in data set [2] (298.15 K), 682.19 ± 0.18 kg/m3 in data set [2] (318.15 K) and 665.43 ± 0.18 kg/m3 in data set [2] (338.15 K).

Values taken from the NIST ThermoML archive (doi:10.1016/j.fluid.2016.08.035).
